In the supplement of paper PMC11451515:

Assays:
Conditions in all cases: 48 h
NOMO1 [1] = experiment: cell viability relative to DMSO control; higher = less cytotoxic
Outline: (§1)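 NOMO1 or SEM (500 cells/well) or P12-Ichikawa (1000 cells/well) leukemia cells were adapted for at least four passages in each medium. They were seeded in 1536-well plates (5 μl) and pin-dosed with library compounds in DMSO over an 11-point threefold series, 47 μM to 0.79 nM. CellTiter-Glo One luminescence was read after 48 h at 37°C. Viability is the per-plate percentage relative to DMSO wells, with cell-free wells as background.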

P12-Ichikawa [2] = experiment: as above
Outline: as §1

SEM cells [3] = experiment: as above
Outline: as §1

NOMO1 [4] = experiment: AUC of viability dose-response curve (% viability x log10 dose units); higher = less sensitive
Outline: (§2)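 Leukemia cells adapted to each medium were seeded at 500 or 1000 cells/well in 1536-well plates and dosed with library compounds in DMSO at 11 threefold doses from 47 μM to 0.79 nM for 48 h at 37°C. CellTiter-Glo One luminescence was normalised per plate to DMSO and cell-free wells, then fitted with a four-parameter log-logistic model over log10 doses. Area under the curve was taken from this fit by the trapezoidal rule, with curves above full viability scaled and curves failing quality control removed.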

P12-Ichikawa [5] = experiment: as above
Outline: as §2

SEM cells [6] = experiment: as above
Outline: as §2

O=C(/C=C/c1ccc(/C=C/C(=O)Nc2ccc(C3=NCCN3)cc2)cc1)Nc1ccc(C2=NCCN2)cc1
cell viability [%]
Conditions | NOMO1 [1] | P12-Ichikawa [2] | SEM cells [3]
HPLM + 10% dialyzed FBS, 0.000781 µM | 103 | 98.7 | 96.5
HPLM + 10% dialyzed FBS, 0.00234 µM | 108 | 102 | 103
HPLM + 10% dialyzed FBS, 0.00702 µM | 111 | 111 | 101
HPLM + 10% dialyzed FBS, 0.0211 µM | 108 | 115 | 115
HPLM + 10% dialyzed FBS, 0.0632 µM | 111 | 117 | 129
HPLM + 10% dialyzed FBS, 0.19 µM | 116 | 108 | 118
HPLM + 10% dialyzed FBS, 0.569 µM | 117 | 117 | 115
HPLM + 10% dialyzed FBS, 1.71 µM | 123 | 115 | 117
HPLM + 10% dialyzed FBS, 5.12 µM | 121 | 119 | 103
HPLM + 10% dialyzed FBS, 15.4 µM | 111 | 115 | 103
HPLM + 10% dialyzed FBS, 46.1 µM | 122 | 108 | 115
RPMI 5 mM glucose + 10% FBS, 0.000781 µM | 104 | 101 | 93.6
RPMI 5 mM glucose + 10% FBS, 0.00234 µM | 98.8 | 104 | 104
RPMI 5 mM glucose + 10% FBS, 0.00702 µM | 115 | 111 | 95.5
RPMI 5 mM glucose + 10% FBS, 0.0211 µM | 117 | 111 | 102
RPMI 5 mM glucose + 10% FBS, 0.0632 µM | 123 | 109 | 109
RPMI 5 mM glucose + 10% FBS, 0.19 µM | 106 | 119 | 99.2
RPMI 5 mM glucose + 10% FBS, 0.569 µM | 106 | 109 | 110
RPMI 5 mM glucose + 10% FBS, 1.71 µM | 115 | 106 | 114
RPMI 5 mM glucose + 10% FBS, 5.12 µM | 117 | 112 | 93.5
RPMI 5 mM glucose + 10% FBS, 15.4 µM | 125 | 107 | 72.8
RPMI 5 mM glucose + 10% FBS, 46.1 µM | 131 | 110 | 52.3
RPMI 5 mM glucose + 10% dialyzed FBS, 0.000781 µM | 88.2 | 91.3 | 104
RPMI 5 mM glucose + 10% dialyzed FBS, 0.00234 µM | 107 | 109 | 120
RPMI 5 mM glucose + 10% dialyzed FBS, 0.00702 µM | 95.5 | 107 | 115
RPMI 5 mM glucose + 10% dialyzed FBS, 0.0211 µM | 106 | 96.7 | 114
RPMI 5 mM glucose + 10% dialyzed FBS, 0.0632 µM | 117 | 104 | 109
RPMI 5 mM glucose + 10% dialyzed FBS, 0.19 µM | 117 | 115 | 113
RPMI 5 mM glucose + 10% dialyzed FBS, 0.569 µM | 113 | 105 | 111
RPMI 5 mM glucose + 10% dialyzed FBS, 1.71 µM | 112 | 112 | 120
RPMI 5 mM glucose + 10% dialyzed FBS, 5.12 µM | 108 | 109 | 108
RPMI 5 mM glucose + 10% dialyzed FBS, 15.4 µM | 112 | 112 | 97.7
RPMI 5 mM glucose + 10% dialyzed FBS, 46.1 µM | 102 | 100 | 64.6

AUC of viability dose-response curve
Conditions | NOMO1 [4] | P12-Ichikawa [5] | SEM cells [6]
HPLM + 10% dialyzed FBS | 456 | 467 | 460
RPMI 5 mM glucose + 10% FBS | 439 | 467 | 448
RPMI 5 mM glucose + 10% dialyzed FBS | 464 | 473 | 459

NC(=O)N/N=C/c1ccc([N+](=O)[O-])o1
cell viability [%], SEM cells [3]
Conditions | HPLM + 10% dialyzed FBS | RPMI 5 mM glucose + 10% FBS
0.000781 µM | 104 | 121
0.00234 µM | 120 | 133
0.00702 µM | 101 | 123
0.0211 µM | 124 | 129
0.0632 µM | 125 | 137
0.19 µM | 122 | 142
0.569 µM | 109 | 116
1.71 µM | 122 | 140
5.12 µM | 112 | 139
15.4 µM | 126 | 161
46.1 µM | 109 | 120

AUC of viability dose-response curve
Conditions | NOMO1 [4] | P12-Ichikawa [5] | SEM cells [6]
HPLM + 10% dialyzed FBS | 455 | 470 | 472
RPMI 5 mM glucose + 10% FBS | 441 | 435 | 453
RPMI 5 mM glucose + 10% dialyzed FBS | 434 | 470 | 467

CCn1nnc2c(N3CCOCC3)nc(-c3ccc(NC(=O)Nc4ccc(C(=O)N5CCN(C)CC5)cc4)cc3)nc21
cell viability [%]
Conditions | NOMO1 [1] | P12-Ichikawa [2] | SEM cells [3]
HPLM + 10% dialyzed FBS, 0.000781 µM | 117 | 103 | 109
HPLM + 10% dialyzed FBS, 0.00234 µM | 109 | 109 | 104
HPLM + 10% dialyzed FBS, 0.00702 µM | 94.2 | 99.8 | 87.4
HPLM + 10% dialyzed FBS, 0.0211 µM | 67.2 | 92.6 | 82.6
HPLM + 10% dialyzed FBS, 0.0632 µM | 63.4 | 91.6 | 61.5
HPLM + 10% dialyzed FBS, 0.19 µM | 53.9 | 76.3 | 58.2
HPLM + 10% dialyzed FBS, 0.569 µM | 101 | 101 | 103
HPLM + 10% dialyzed FBS, 1.71 µM | 65.7 | 71 | 54.3
HPLM + 10% dialyzed FBS, 5.12 µM | 60.7 | 76 | 54.1
HPLM + 10% dialyzed FBS, 15.4 µM | 51.4 | 70.2 | 49.8
HPLM + 10% dialyzed FBS, 46.1 µM | 48 | 68.9 | 41.9
RPMI 5 mM glucose + 10% FBS, 0.000781 µM | 90.8 | 97.5 | 124
RPMI 5 mM glucose + 10% FBS, 0.00234 µM | 107 | 98.4 | 116
RPMI 5 mM glucose + 10% FBS, 0.00702 µM | 94.1 | 99.4 | 90.5
RPMI 5 mM glucose + 10% FBS, 0.0211 µM | 85.6 | 83.6 | 81.3
RPMI 5 mM glucose + 10% FBS, 0.0632 µM | 76.5 | 72.3 | 64.2
RPMI 5 mM glucose + 10% FBS, 0.19 µM | 67.7 | 55.3 | 56.2
RPMI 5 mM glucose + 10% FBS, 0.569 µM | 105 | 94.3 | 114
RPMI 5 mM glucose + 10% FBS, 1.71 µM | 79.9 | 55.2 | 49.5
RPMI 5 mM glucose + 10% FBS, 5.12 µM | 72.4 | 54.9 | 48.4
RPMI 5 mM glucose + 10% FBS, 15.4 µM | 69.9 | 56.9 | 46.4
RPMI 5 mM glucose + 10% FBS, 46.1 µM | 61.2 | 59.4 | 40.5
RPMI 5 mM glucose + 10% dialyzed FBS, 0.000781 µM | 89.3 | 93.7 | 101
RPMI 5 mM glucose + 10% dialyzed FBS, 0.00234 µM | 97.2 | 106 | 95.9
RPMI 5 mM glucose + 10% dialyzed FBS, 0.00702 µM | 89.7 | 88.5 | 79
RPMI 5 mM glucose + 10% dialyzed FBS, 0.0211 µM | 75.3 | 70.6 | 71.6
RPMI 5 mM glucose + 10% dialyzed FBS, 0.0632 µM | 60.9 | 69.9 | 60.3
RPMI 5 mM glucose + 10% dialyzed FBS, 0.19 µM | 60.2 | 59.6 | 54.3
RPMI 5 mM glucose + 10% dialyzed FBS, 0.569 µM | 89.8 | 103 | 123
RPMI 5 mM glucose + 10% dialyzed FBS, 1.71 µM | 62.5 | 56.9 | 50.8
RPMI 5 mM glucose + 10% dialyzed FBS, 5.12 µM | 53.5 | 58.8 | 49.5
RPMI 5 mM glucose + 10% dialyzed FBS, 15.4 µM | 55.9 | 54.4 | 44.9
RPMI 5 mM glucose + 10% dialyzed FBS, 46.1 µM | 56 | 50.1 | 47.8

AUC of viability dose-response curve
Conditions | NOMO1 [4] | P12-Ichikawa [5] | SEM cells [6]
HPLM + 10% dialyzed FBS | 309 | 391 | 330
RPMI 5 mM glucose + 10% FBS | 395 | 353 | 296
RPMI 5 mM glucose + 10% dialyzed FBS | 341 | 352 | 337
